Values quoted from earlier work in patent publication US20080081067A1, “SUSTAINED RELEASE PHARMACEUTICAL COMPOSITIONS OF VENLAFAXINE AND PROCESS FOR PREPARATION THEREOF” (priority 2006, published 2008).

Test system: monoamine oxidase
Conditions: background statement

SMILES: COc1ccc(C(CN(C)C)C2(O)CCCCC2)cc1 (stereo not shown) [Venlafaxine]
- inhibitory activity on monoamine oxidase: no inhibitory activity
